Assay results from US8217073B2, “Pyrrole derivatives as therapeutic compounds” (Myrexis, Inc., priority 2005, dated 2012).
“And” between values parts separate entries of the source, which are not always exact repeats. Equal values may be shown once. Read-outs that look alike come from different tables or passages of the source.

What was measured:
Aβ42 secretion = Aβ42 secretion by H4 cells expressing APP695, sandwich ELISA; format: cell-based, human; conditions: medium collected at 24 or 48 hours, several numbers = independent sets of assays; for IC50: about 1 μM to about 100 μM; for inhibition at 100 µM / % Inhibition of Aβ42 Secretion @ 100 μM: test compound 100 μM vs DMSO control
Procedure: (§1) The present invention provides compositions and methods for lowering Aβ42 levels. To test whether compounds and compositions are capable of modulating Aβ levels in cultured cells, sandwich enzyme-linked immunosorbent assays (ELISAs) are employed to measure secreted Aβ (Aβ42 and/or Aβ40 levels). In this example, H4 cells expressing wide type APP695 are seeded at 200,000 cells per well in 6 well plates, and incubated at 37° C. with 5% CO2 overnight. Cells are treated with 1.5 ml medium containing vehicle (DMSO) or a test compound at 1.25 μM, 2.5 μM, 5.0 μM and 10.0 μM (as well as other concentration if desirable) for 24 hours or 48 hours. The supernatant from treated cells is collected into eppendorf tubes and frozen at −80° C. for future analysis.
(§2) The amyloid peptide standard is reconstituted and frozen samples are thawed. The samples and standards are diluted with appropriate diluents and the plate is washed 4 times with Working Wash Buffer and patted dry on a paper towel. 100 μL per well of peptide standards, controls, and dilutions of samples to be analyzed is added. The plate is incubated for 2 hours while shaking on an orbital plate shaker at RT. The plate is then washed 4 times with Working Wash Buffer and patted dry on a paper towel. Detection Antibody Solution is poured into a reservoir and 100 μL/well of Detection Antibody Solution is immediately added to the plate. The plate is incubated at RT for 2 hours while shaking and then washed four times with Working Wash Buffer and patted dry on a paper towel. Secondary Antibody Solution is then poured into a reservoir and 100 μL/well of Secondary Antibody Solution is immediately added to the plate. The plate is incubated at RT for 2 hours with shaking, washed 5 times with Working Wash Buffer, and patted dry on a paper towel.
(§3) 100 μL of stabilized chromogen is added to each well and the liquid in the wells begins to turn blue. The plate is incubated for 30 minutes at room temperature and in the dark. 100 μL of stop solution is added to each well and the plate is tapped gently to mix resulting in a change of solution color from blue to yellow. The absorbance of each well is read at 450 nm having blanked the plate reader against a chromogen blank composed of 100 μL each of stabilized chromogen and stop solution. The plate is read within 2 hours of adding the stop solution. The absorbance of the standards is plotted against the standard concentration and the concentrations of unknown samples and controls are calculated.
(§4) The present invention provides compositions and methods for lowering Aβ42 levels. To test whether compounds and compositions are capable of modulating Aβ levels, sandwich enzyme-linked immunosorbent assays (ELISAs) is employed to measure secreted Aβ42 and/or Aβ40 levels. In this example, H4 cells expressing wide type APP695 are seeded at 200,000 cells per well in 6 well plates, and incubated at 37° C. with 5% CO2 overnight. Cells are treated with 1.5 mL medium containing vehicle (DMSO) or a test compound at 1.25 μM, 2.5 μM, 5.0 μM and 10.0 μM concentration for 24 hours or 48 hours. The supernatant from treated cells is collected into eppendorf tubes and frozen at −80° C. for future analysis.
(§5) 130 μL per well of samples, standards, and blanks is added to a 96-well polypropylene plate. […] of samples, standards, and blanks from the polypropylene plate is added to the antibody-coated plates. The strip-holder with the appropriate number of strips is applied to the antibody-coated plates and the strips are covered with an adhesive sealer. The plate is then incubated 3 hours at room temperature while shaking on an orbital plate shaker.
(§6) The first antibody solution is prepared with Conjugate Diluent 1 at 1:100 ratio. Each well of the antibody-coated plates is washed 5 times with 400 μL washing solution and 100 μL of the prepared first antibody solution is added to each well. […]

Aβ40 secretion = Aβ40 secretion by H4 cells expressing APP695, sandwich ELISA; format: cell-based, human; conditions: medium collected at 24 or 48 hours, several numbers = independent sets of assays; for IC50: about 1 μM to about 100 μM; for inhibition at 100 µM / % Inhibition of Aβ40 Secretion @ 100 μM: test compound 100 μM vs DMSO control
Procedure: as §1, §2, §3, §4, §5, §6

Aβ42 [1] = conditions: transgenic mouse model; cited from earlier work
Aβ42 [2] = conditions: CHO cells; cited from earlier work
COX = conditions: cited from earlier work

| SMILES | IC50 (Aβ42 secretion; Homo sapiens) | IC50 (Aβ40 secretion; Homo sapiens) | IC50 (Aβ42 secretion) | IC50 (Aβ40 secretion) | inhibition at 100 µM (Aβ42 secretion; Homo sapiens) | inhibition at 100 µM (Aβ40 secretion; Homo sapiens) | % Inhibition of Aβ42 Secretion @ 100 μM (Aβ42 secretion) | % Inhibition of Aβ40 Secretion @ 100 μM (Aβ40 secretion) | Aβ42 lowering (Aβ42 [1]) | Aβ42 lowering (Aβ42 [2]) | inhibition of COX activity (COX) |
| --- | --- | --- | --- | --- | --- | --- | --- | --- | --- | --- | --- |
| O=C(O)CCc1cccc(-n2c(CCc3ccccc3)ccc2-c2ccccc2)c1 [Compound 24, 3-[3-(2-Phenethyl-5-phenyl-pyrrol-1-yl)-phenyl]-propionic acid] | 52 µM | 100 µM |  |  | 73% | 52% |  |  |  |  |  |
| O=C(O)CCCc1ccc(-n2c(CCc3ccccc3)ccc2-c2ccccc2)cc1 [Compound 25, 4-[4-(2-Phenethyl-5-phenyl-pyrrol-1-yl)-phenyl]-butyric acid] | > 100 µM | > 100 µM |  |  | 40% | 30% |  |  |  |  |  |
| Cc1c(-c2ccccc2)cc(-c2ccccc2)n1-c1ccc(OCCC(=O)O)cc1 [Compound 28, 3-[4-(2-Methyl-3,5-diphenyl-pyrrol-1-yl)-phenoxy]-propionic acid] | 80 µM | > 32 µM |  |  | 55% | 32% |  |  |  |  |  |
| CC(C)c1c(-c2ccccc2)cc(-c2ccccc2)n1-c1ccc(CCCC(=O)O)cc1 [Compound 32, 4-[4-(2-Isopropyl-3,5-diphenyl-pyrrol-1-yl)-phenyl]-butyric acid] | 22 µM | 41 µM |  |  | 98% | 103% |  |  |  |  |  |
| O=C(O)c1cccc(-n2c(-c3ccccc3)cc(-c3ccccc3)c2C2CC2)c1 [Compound 33, 3-(2-Cyclopropyl-3,5-diphenyl-pyrrol-1-yl)-benzoic acid] | 21 µM | 74 µM | 24 µM | 79 µM | 89% | 73% | 86% | 73, 73% |  |  |  |
| O=C(O)CCc1cccc(-n2c(-c3ccccc3)cc(-c3ccccc3)c2C2CC2)c1 [Compound 34, 3-[3-(2-Cyclopropyl-3,5-diphenyl-pyrrol-1-yl)-phenyl]-propionic acid] | 30 µM | 48 µM |  |  | 95% | 100% |  |  |  |  |  |
| O=C(O)CCCc1ccc(-n2c(-c3ccccc3)cc(-c3ccccc3)c2C2CC2)cc1 [Compound 35, 4-[4-(2-Cyclopropyl-3,5-diphenyl-pyrrol-1-yl)-phenyl]-butyric acid] | 29 µM | 79 µM | 24 µM | 68 µM | 83% |  | 93% | 73% and 96% |  |  |  |
| Cc1c(-c2ccccc2)cc(-c2ccccc2)n1-c1ccc(C(=O)O)cc1 [Compound 39, 4-(2-Methyl-3,5-diphenyl-pyrrol-1-yl)-benzoic acid] | 50 µM | 54 µM |  |  | 86% | 92% |  |  |  |  |  |
| C[C@@H](C(=O)O)c1ccc(-c2ccccc2)c(F)c1 [R-Flurbiprofen] |  |  |  |  |  |  |  |  | lower Aβ42 | lower Aβ42 | negligibly inhibits COX activity |

Second part, led by results:

| IC50 (Aβ42 secretion; Homo sapiens) | IC50 (Aβ40 secretion; Homo sapiens) | IC50 (Aβ42 secretion) | IC50 (Aβ40 secretion) | SMILES | inhibition at 100 µM (Aβ42 secretion; Homo sapiens) | inhibition at 100 µM (Aβ40 secretion; Homo sapiens) | % Inhibition of Aβ42 Secretion @ 100 μM (Aβ42 secretion) | % Inhibition of Aβ40 Secretion @ 100 μM (Aβ40 secretion) | Aβ42 lowering (Aβ42 [1]) | Aβ42 lowering (Aβ42 [2]) | inhibition of COX activity (COX) |
| --- | --- | --- | --- | --- | --- | --- | --- | --- | --- | --- | --- |
| 21 µM | 42 µM |  |  | Cc1c(-c2ccccc2)cc(-c2ccccc2)n1-c1cccc(OCC(=O)O)c1 [Compound 26, [3-(2-Methyl-3,5-diphenyl-pyrrol-1-yl)-phenoxy]-acetic acid] | 147% | 94% |  |  |  |  |  |
| 14 µM | 33 µM |  |  | O=C(O)CCCc1ccc(-n2c(-c3ccccc3)cc(-c3ccccc3)c2C2CCCCC2)cc1 [Compound 29, 4-[4-(2-Cyclohexyl-3,5-diphenyl-pyrrol-1-yl)-phenyl]-butyric acid] | 102% | 103% |  |  |  |  |  |
| 15 µM | 22 µM |  |  | CC(C)c1c(-c2ccccc2)cc(-c2ccccc2)n1-c1cccc(C(=O)O)c1 [Compound 30, 3-(2-Isopropyl-3,5-diphenyl-pyrrol-1-yl)-benzoic acid] | 99% | 101% |  |  |  |  |  |
| 21 µM | 23 µM |  |  | CC(C)c1c(-c2ccccc2)cc(-c2ccccc2)n1-c1cccc(CCC(=O)O)c1 [Compound 31, 3-[3-(2-Isopropyl-3,5-diphenyl-pyrrol-1-yl)-phenyl]-propionic acid] | 95% | 106% |  |  |  |  |  |
| 8 µM | 29 µM | 7 µM | 19 µM | CC(C)(C)Cc1c(-c2ccccc2)cc(-c2ccccc2)n1-c1cccc(C(=O)O)c1 [Compound 36, 3-[2-(2,2-Dimethyl-propyl)-3,5-diphenyl-pyrrol-1-yl]-benzoic acid] | 99% | 103% | 101% | 96% |  |  |  |
| 9 µM | 30 µM | 7 µM | 32 µM | CC(C)(C)Cc1c(-c2ccccc2)cc(-c2ccccc2)n1-c1cccc(CCC(=O)O)c1 [Compound 37, 3-{3-[2-(2,2-Dimethyl-propyl)-3,5-diphenyl-pyrrol-1-yl]-phenyl}-propionic acid] | 100% | 98% | 99% | 104% |  |  |  |
| 10 µM | 63 µM | 7 µM | 37 µM | CC(C)(C)Cc1c(-c2ccccc2)cc(-c2ccccc2)n1-c1ccc(CCCC(=O)O)cc1 [Compound 38, 4-{4-[2-(2,2-Dimethyl-propyl)-3,5-diphenyl-pyrrol-1-yl]-phenyl}-butyric acid] | 94% | 88% | 101% | 104% |  |  |  |
